From US12150955B2, “Iodine compositions” (DERMALIQ THERAPEUTICS, INC., priority 2017, dated 2024)

Tests used:
[1] = Concentration of molecular iodine dissolved in the vehicle (saturated solutions); assay type: physicochemical
Experimental: Molecular iodine (I2) solutions in the semifluorinated alkane F4H5 at target concentrations of 0.01 mg/ml, 0.05 mg/ml, 0.1 mg/mL, 0.5 mg/mL, 0.55 mg/ml and 0.94 mg/mL were prepared. Molecular iodine was weighed into clear glass vials, followed by addition of the calculated volume of semifluorinated alkane F4H5. The compositions were stirred for 2 hours at room temperatures. The compositions provided clear pink solutions, ranging from strong pink/violet color at high concentrations (0.55 mg/ml) to very dilute pinkish colour at lower concentrations (0.01 mg/ml).
The 0.94 mg/ml solution was prepared by adding additional F4H5 to a composition comprising 1.0 mg/mL molecular iodine until all remaining molecular iodine particles were dissolved, providing a clear solution of deep pink/violet colour.
Molecular iodine (I2) solutions in the semifluorinated alkane F6H8 at target concentrations of 0.1 mg/mL, 0.5 mg/mL and 1.0 mg/mL were prepared. Molecular iodine was weighed into clear glass vials, followed by addition of the calculated volume of semifluorinated alkane F6H8. The compositions were stirred for 2 hours at room temperature
Additional F6H8 was added to the target 1.0 mg/mL composition until all remaining molecular iodine particles were dissolved, providing a clear solution, with a concentration of about 0.88 mg/mL. The solution is a deep pink/violet in colour.
Solutions with higher I2 concentrations may be prepared with the addition of ethanol (non-absolute or alternatively absolute). F4H5/EtOH-Concentrations of about 20 mg/mL of I2 in F4H5 are achieved when ethanol is added to an amount of 38% (w/w), relative to the weight of the vehicle The resulting composition is a red-brown coloured solution.
F6H8/EtOH-Solutions with higher I2 concentrations may be prepared with the addition of ethanol (non-absolute or alternatively absolute). Concentrations of about 20 mg/mL of I2 in F6H8 are achieved when ethanol is added to an amount of 38% (w/w), relative to the weight of the vehicle.
Saturated iodine solutions as prepared in Example 1 above of I2 in F4H5 (0.94 mg/mL) and F6H8 (0.88 mg/mL) were stored standing under ambient atmosphere and temperature conditions under a capped clear glass vial for 52 weeks without protection from light.

Rabbit corneas = assay: Ex Vivo Eye Irritation Test (EVEIT), corneal healing
Experimental: A comparison in respect of corneal healing process was conducted for a composition comprising molecular iodine (0.25 mg/ml; 250 ppm) in 1-perfluorohexyl-octane (Composition B) with vehicle 1-perfluorohexyl-octane (Composition A) and hyaluronic acid (HYLO-COMOD®) as a reference and 0.01% BAC (benzalkonium chloride) as a control using an Ex Vivo Eye Irritation Test (EVEIT), similar to as described in M. Frentz et al, Altern. to Lab. Anim., 2008 (36) p 25-32; and N. Schrage et al, Graefes Arch Clin Exp Ophthalmol 2012 (250), 1330-1340).
Method. […]
After 12 h of stabilization in the culture chamber, the corneas were evaluated by microscopy and corneas with intact epithelium and without opacities were selected. […] All defects were monitored by fluorescein sodium staining (0.17% aq. solution) and microscopy.
The test substances were administered one hour after induction of the corneal erosion and were applied six times daily onto the apex of the corneas (30-50 μL every four hours). […] All defects were monitored by fluorescein sodium stains (0.17% aq. solution) with yellow green fluorescence indicating the areas of epithelial defects. Erosion sizes were determined using a software tool of the microscope (DISKUS). […] To monitor the metabolic activity of the cornea, glucose and lactate concentrations were photometrically quantified in the outflow medium from the artificial anterior chambers.

In the case of `II` [molecular iodine, Molecular iodine], the “concentration at which all molecular iodine particles were dissolved (saturated solution)” value ([1]; in F4H5, room temperature) is reported as 940 µg/mL, the I2 concentration achieved ([1]; in F4H5 with ethanol 38% (w/w) of the vehicle) is reported as “about 20 mg/mL” and the “concentration at which all molecular iodine particles were dissolved (saturated solution)” value ([1]; in F6H8, room temperature) is reported as “about 0.88 mg/mL”. The I2 concentration achieved ([1]; in F6H8 with ethanol 38% (w/w) of the vehicle) was “about 20 mg/mL”.
In the case of benzalkonium chloride [0.01% BAC], the “corneal healing process after induction of corneal erosion (in words)” value (Rabbit corneas) is reported as “progressive increase of the induced epithelial lesions”.
